Measured values: ChEMBL document CHEMBL5465560, “Selectivity Literature for EUbOPEN Chemogenomic Library” (2024)
One block for each molecule: values may come before it.

Experiments:
[1] = target: T1, Serine/threonine-protein kinase NLK (Homo sapiens) (UniProt Q9UBE8); settings: at 10 µM
T1 sequence (whole entry): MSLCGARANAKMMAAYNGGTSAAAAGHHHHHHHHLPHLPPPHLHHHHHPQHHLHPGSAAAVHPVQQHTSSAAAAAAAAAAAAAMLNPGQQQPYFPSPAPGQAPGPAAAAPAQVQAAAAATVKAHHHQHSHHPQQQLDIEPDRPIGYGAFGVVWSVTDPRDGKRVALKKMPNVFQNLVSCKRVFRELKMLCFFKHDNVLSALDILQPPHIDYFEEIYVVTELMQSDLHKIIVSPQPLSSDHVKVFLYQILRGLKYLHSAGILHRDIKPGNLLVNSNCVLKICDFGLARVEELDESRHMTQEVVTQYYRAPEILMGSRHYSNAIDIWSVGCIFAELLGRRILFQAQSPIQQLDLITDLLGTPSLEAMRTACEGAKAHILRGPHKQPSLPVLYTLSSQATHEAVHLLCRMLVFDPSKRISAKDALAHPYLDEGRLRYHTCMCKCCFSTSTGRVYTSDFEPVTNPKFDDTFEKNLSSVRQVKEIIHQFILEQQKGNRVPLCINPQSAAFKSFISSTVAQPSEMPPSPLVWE

[2] = target: Vascular endothelial growth factor receptor 1 (Homo sapiens) (UniProt P17948); settings: at 10 µM
[3] = target: Beta-2 adrenergic receptor (Homo sapiens, UniProt P07550); assay: Selectivity interaction (Panel of kinases, GPCRs, ion channels and transporters (enzymatic assay)) EUB0000266bCl ADRB2
[4] = target: Serine/threonine-protein kinase SMG1 (Homo sapiens) (UniProt Q96Q15); assay: Selectivity interaction (ActivX KiNativ screen (kinase selectivity in THP-1 cell lysates)) EUB0000639a SMG1; format: subcellular; settings: lysate, at 0.2 µM
[5] = target: Phosphatidylinositol 4-kinase beta (Homo sapiens, UniProt Q9UBF8); assay: Selectivity interaction (ActivX KiNativ screen (kinase selectivity in THP-1 cell lysates)) EUB0000639a PI4KB; format: subcellular; settings: lysate, at 1 µM
[6] = target: Calcium/calmodulin-dependent protein kinase type 1 (Homo sapiens) (UniProt Q14012); assay: Selectivity interaction (ActivX KiNativ screen (kinase selectivity in THP-1 cell lysates)) EUB0000639a CAMK1; format: subcellular; settings: lysate
[7] = target: Dual specificity testis-specific protein kinase 2 (Homo sapiens) (UniProt Q96S53); assay: Selectivity interaction (LanthaScreen Eu Kinase Binding Assay) EUB0001632a TESK2; settings: at 10 µM
[8] = target: Serine/threonine-protein kinase N1 (Homo sapiens, UniProt Q16512); assay: Selectivity interaction (KinomeScan (DiscoverX)) EUB0000695a PKN1; settings: at 100 nM
[9] = target: 5-hydroxytryptamine receptor 2B (Homo sapiens, UniProt P41595); assay: Selectivity interaction (Panel of non-epigenetic targets (kinases, GPCRs, ion channels, and transporters, Eurofins) ) EUB0000271b HTR2B; settings: at 1 µM
[10] = target: T2, Ephrin type-A receptor 1 (Homo sapiens) (UniProt P21709); assay: Selectivity interaction (KinomeScan (DiscoverX)) EUB0000229b EPHA1; settings: at 10 µM
T2 sequence (whole entry): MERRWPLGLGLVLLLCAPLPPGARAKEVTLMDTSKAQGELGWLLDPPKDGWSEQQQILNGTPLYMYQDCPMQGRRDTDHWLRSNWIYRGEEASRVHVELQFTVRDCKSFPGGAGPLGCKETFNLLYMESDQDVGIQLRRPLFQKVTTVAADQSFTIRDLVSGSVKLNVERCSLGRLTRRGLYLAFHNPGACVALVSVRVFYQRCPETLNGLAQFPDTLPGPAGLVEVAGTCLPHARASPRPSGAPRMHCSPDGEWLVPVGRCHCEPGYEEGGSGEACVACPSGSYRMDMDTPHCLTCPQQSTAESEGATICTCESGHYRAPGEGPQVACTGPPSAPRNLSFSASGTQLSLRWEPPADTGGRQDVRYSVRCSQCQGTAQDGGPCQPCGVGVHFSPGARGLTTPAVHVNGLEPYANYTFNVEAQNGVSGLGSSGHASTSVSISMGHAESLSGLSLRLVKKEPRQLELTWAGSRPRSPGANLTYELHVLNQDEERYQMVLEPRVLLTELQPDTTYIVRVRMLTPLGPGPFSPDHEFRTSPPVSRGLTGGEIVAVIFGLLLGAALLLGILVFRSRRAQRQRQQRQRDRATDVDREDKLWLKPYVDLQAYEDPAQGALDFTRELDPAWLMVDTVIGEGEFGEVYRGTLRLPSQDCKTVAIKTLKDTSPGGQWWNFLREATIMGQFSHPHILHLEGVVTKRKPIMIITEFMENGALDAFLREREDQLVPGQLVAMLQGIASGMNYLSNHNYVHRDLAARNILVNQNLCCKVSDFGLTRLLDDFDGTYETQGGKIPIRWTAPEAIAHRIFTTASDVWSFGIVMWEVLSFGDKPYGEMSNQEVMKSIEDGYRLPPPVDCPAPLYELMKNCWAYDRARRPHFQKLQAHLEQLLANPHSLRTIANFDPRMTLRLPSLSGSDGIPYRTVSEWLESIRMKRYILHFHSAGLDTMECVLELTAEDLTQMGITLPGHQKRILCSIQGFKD

[11] = target: Tyrosine-protein kinase Fgr (Homo sapiens) (UniProt P09769); assay: Selectivity interaction (Upstate Kinase Profiler service (Millipore)) EUB0000056c FGR; settings: at 1 µM
[12] = target: Mitogen-activated protein kinase kinase kinase kinase 5 (Homo sapiens) (UniProt Q9Y4K4); assay: Selectivity interaction (KinomeScan (DiscoverX)) EUB0000655a MAP4K5; settings: at 10 µM
[13] = target: Leucine-rich repeat serine/threonine-protein kinase 2 (Homo sapiens, UniProt Q5S007); settings: PBMC, at 1 µM
[14] = target: Aurora kinase B (Homo sapiens, UniProt Q96GD4); assay: Selectivity interaction (Kinase panel (Invitrogen, enzymatic assay)) EUB0000162b AURKB
[15] = target: TRAF2 and NCK-interacting protein kinase (Homo sapiens) (UniProt Q9UKE5); assay: Selectivity interaction (KinomeScan (DiscoverX)) EUB0000607a TNIK; settings: at 10 µM
[16] = target: Mitogen-activated protein kinase 14 (Homo sapiens, UniProt Q16539); assay: Selectivity interaction (Kinase panel (KiNativ target engagement assay in Jurkat cells)) EUB0001635a MAPK14; format: cell-based; settings: Selectivity number of off-targets 0.0, Selectivity number of targets 233.0, Source Knowledge https://www.sciencedirect.com/science/article/pii/S2451945619300674?via%3Dihub, at 1 µM
[17] = target: Cyclin-dependent kinase 15 (Homo sapiens) (UniProt Q96Q40); assay: Selectivity interaction (KinomeScan (DiscoverX)) EUB0000666a CDK15; settings: at 10 µM
Chain of Cyclin-dependent kinase 15 (Homo sapiens) (Q96Q40 whole entry): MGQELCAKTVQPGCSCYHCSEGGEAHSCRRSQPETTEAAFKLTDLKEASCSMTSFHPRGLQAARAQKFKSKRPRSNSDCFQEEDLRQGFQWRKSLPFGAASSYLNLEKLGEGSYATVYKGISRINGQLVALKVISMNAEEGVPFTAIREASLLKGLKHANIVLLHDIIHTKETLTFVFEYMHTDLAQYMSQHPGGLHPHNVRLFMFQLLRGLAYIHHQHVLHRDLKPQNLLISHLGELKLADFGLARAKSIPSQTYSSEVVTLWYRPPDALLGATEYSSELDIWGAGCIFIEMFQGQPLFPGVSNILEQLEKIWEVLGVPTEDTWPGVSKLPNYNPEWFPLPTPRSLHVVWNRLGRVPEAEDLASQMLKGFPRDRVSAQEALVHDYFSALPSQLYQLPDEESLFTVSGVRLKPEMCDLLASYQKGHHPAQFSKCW

Chain of Calcium/calmodulin-dependent protein kinase type 1 (Homo sapiens) (Q14012 whole entry, looked up): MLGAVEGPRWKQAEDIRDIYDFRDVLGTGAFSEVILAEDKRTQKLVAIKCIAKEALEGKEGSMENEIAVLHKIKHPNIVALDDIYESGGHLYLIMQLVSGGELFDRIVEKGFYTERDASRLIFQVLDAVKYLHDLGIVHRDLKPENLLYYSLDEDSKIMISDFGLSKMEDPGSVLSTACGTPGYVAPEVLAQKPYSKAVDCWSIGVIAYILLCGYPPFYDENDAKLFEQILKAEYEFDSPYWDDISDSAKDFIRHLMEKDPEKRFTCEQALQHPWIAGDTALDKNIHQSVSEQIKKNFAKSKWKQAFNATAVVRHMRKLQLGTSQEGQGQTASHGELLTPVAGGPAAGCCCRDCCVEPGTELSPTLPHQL
Chain of 5-hydroxytryptamine receptor 2B (P41595 whole entry): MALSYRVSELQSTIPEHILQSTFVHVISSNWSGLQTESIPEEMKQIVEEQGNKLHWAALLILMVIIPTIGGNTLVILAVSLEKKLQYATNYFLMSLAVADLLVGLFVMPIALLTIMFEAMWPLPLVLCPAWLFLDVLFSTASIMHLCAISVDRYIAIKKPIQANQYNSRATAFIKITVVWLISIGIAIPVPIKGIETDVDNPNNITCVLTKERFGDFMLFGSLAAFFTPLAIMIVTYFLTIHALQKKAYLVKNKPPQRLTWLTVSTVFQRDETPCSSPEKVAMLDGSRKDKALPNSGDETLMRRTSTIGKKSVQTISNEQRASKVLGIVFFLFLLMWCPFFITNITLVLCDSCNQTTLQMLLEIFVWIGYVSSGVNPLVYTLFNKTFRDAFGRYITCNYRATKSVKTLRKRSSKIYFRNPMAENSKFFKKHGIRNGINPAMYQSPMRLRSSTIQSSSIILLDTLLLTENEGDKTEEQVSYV
Chain of Phosphatidylinositol 4-kinase beta (Q9UBF8 2-816 limits assumed): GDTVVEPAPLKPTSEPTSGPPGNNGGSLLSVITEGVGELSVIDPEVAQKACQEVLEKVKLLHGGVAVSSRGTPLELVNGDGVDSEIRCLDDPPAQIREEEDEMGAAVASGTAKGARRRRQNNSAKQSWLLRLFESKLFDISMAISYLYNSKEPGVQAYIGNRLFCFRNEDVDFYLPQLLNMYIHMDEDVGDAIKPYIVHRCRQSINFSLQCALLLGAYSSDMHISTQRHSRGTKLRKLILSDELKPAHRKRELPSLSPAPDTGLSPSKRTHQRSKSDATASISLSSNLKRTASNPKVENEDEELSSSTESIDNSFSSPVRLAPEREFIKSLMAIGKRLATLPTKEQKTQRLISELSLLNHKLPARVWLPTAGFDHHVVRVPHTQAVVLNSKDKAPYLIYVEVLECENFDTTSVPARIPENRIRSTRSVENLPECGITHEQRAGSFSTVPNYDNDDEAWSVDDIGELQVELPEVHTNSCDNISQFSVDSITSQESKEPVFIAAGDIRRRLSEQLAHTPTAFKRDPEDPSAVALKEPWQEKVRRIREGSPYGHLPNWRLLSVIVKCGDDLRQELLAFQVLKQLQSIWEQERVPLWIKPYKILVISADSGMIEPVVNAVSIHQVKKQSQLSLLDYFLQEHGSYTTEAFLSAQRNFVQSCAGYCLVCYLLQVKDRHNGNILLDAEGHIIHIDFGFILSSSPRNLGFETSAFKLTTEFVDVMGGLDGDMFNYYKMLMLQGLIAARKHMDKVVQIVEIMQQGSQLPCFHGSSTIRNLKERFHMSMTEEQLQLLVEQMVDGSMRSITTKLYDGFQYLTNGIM
Chain of Dual specificity testis-specific protein kinase 2 (Homo sapiens) (Q96S53 whole entry, looked up): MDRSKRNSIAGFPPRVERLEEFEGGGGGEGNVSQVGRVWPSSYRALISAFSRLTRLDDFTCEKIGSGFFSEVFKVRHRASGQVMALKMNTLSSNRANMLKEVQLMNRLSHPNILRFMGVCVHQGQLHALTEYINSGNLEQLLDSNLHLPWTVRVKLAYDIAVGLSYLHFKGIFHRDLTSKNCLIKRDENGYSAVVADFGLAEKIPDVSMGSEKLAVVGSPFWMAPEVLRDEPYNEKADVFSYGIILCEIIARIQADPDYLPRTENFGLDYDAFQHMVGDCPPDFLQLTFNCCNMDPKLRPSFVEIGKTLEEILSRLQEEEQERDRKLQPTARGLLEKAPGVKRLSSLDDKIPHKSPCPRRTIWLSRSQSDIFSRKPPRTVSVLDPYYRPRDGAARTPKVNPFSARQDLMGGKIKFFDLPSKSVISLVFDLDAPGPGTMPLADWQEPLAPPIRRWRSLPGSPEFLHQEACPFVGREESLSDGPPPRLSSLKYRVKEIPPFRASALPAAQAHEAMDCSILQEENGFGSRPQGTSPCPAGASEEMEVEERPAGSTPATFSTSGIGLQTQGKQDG
Chain of Vascular endothelial growth factor receptor 1 (Homo sapiens) (P17948 whole entry): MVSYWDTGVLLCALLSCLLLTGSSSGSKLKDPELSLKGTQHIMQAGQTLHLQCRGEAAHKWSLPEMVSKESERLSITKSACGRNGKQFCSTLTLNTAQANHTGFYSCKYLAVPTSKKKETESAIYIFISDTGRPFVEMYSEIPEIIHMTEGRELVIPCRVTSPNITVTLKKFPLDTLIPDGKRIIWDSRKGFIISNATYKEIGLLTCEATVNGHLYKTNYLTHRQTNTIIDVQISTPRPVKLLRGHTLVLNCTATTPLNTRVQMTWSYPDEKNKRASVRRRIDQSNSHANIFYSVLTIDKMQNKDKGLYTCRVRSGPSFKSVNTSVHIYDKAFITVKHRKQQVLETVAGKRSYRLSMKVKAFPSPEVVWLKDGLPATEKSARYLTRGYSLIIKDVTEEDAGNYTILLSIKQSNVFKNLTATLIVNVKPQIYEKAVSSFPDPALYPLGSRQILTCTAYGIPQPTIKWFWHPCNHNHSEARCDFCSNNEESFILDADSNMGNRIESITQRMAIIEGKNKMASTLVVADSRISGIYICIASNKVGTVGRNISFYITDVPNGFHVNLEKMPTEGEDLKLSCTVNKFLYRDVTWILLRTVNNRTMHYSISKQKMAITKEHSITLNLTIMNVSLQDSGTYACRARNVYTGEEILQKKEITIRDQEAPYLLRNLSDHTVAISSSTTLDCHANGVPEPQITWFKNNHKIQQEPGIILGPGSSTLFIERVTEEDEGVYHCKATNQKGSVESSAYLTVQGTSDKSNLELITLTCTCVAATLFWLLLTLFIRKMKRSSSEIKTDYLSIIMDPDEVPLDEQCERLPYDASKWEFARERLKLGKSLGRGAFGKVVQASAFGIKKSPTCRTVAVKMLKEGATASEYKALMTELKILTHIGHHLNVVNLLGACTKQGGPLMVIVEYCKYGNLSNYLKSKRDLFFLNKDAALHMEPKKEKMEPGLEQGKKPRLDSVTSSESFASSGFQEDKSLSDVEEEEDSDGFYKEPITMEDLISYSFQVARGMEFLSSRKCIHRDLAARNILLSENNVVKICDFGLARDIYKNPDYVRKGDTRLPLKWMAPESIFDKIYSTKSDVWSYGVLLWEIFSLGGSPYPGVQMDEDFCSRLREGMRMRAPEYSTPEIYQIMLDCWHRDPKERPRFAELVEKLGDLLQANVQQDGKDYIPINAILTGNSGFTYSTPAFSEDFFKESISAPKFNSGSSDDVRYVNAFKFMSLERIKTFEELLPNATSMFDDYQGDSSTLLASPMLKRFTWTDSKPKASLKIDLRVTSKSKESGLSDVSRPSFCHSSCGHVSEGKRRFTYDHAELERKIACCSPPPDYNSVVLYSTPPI
Chain of Mitogen-activated protein kinase 14 (Q16539 whole entry): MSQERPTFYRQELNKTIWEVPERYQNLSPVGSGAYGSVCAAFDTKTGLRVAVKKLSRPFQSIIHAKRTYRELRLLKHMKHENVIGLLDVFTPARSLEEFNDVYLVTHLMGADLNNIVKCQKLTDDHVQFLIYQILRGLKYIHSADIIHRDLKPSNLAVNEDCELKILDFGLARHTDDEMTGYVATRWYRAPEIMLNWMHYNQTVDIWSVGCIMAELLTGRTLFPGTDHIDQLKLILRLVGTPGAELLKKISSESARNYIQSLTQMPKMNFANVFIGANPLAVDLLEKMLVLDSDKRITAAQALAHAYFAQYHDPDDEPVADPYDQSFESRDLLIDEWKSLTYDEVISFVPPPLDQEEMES
Chain of Beta-2 adrenergic receptor (P07550 whole entry, looked up): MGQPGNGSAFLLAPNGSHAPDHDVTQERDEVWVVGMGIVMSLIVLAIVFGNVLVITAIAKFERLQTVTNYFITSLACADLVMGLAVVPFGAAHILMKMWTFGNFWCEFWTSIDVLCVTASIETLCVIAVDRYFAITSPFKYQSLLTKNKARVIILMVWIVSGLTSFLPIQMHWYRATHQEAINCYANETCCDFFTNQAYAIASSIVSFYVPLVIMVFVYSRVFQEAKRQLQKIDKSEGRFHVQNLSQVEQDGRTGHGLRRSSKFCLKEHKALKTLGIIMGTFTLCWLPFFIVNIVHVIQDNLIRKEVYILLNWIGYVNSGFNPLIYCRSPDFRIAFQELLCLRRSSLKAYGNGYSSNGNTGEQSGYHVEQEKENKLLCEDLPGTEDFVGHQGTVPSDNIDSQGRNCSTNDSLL

Structure (SMILES): Cc1cc([C@@H](C)Nc2ccccc2C(=O)O)c2nc(N3CCOCC3)cc(=O)n2c1 [AZD-6482]
% of control [1]: 94% | % of control [2]: 83%

pXC50 [3]: < 4.5 M
Structure (SMILES): CCn1c(-c2nc3cc(C(=O)N4CCCC(N)C4)ccc3n2C)cc2ccccc21 (stereo unspecified)

% of inhibition [4]: 0% | % of inhibition [5]: -19.1% | % of inhibition ([6]; at 0.01 µM): -2.6% | % of inhibition ([6]; at 0.04 µM): 9.8% | % of inhibition ([6]; at 0.2 µM): 1.9% | % of inhibition ([6]; at 1 µM): -7.1% | % of inhibition ([6]; at 5 µM): -4.3%
Structure (SMILES): CC[C@@H]1[C@H](F)C(=O)N[C@@H]1COc1nccc2cc(C(N)=O)c(OC)cc12 [ZIMLOVISERTIB]

% of inhibition [7]: 0.732%
Structure (SMILES): Cn1cc(-n2cnc3c(NCc4nc5cc(Cl)c(Cl)cc5[nH]4)nc(N4CCOCC4)nc32)cn1

Structure (SMILES): Cc1cc(F)c(C(=O)Nc2cccc(-c3nncn3C(C)C)n2)cc1-n1cnc(C2CC2)c1
% of control [8]: 83%

Structure (SMILES): Cc1cc(C)cc([C@@H]2c3cc(C)ccc3NC(=O)CN2C(=O)c2ccc(Br)s2)c1
% of inhibition [9]: 1%

Structure (SMILES): COc1cc(N(C)c2ccnc3ccc(C(F)(F)F)cc23)cc(OC)c1OC
% binding [10]: 90%

% of inhibition [11]: 9%
Structure (SMILES): Cc1ccc(-c2ccc3c(ccc4sc5c(c43)NC[C@@H](C)NC5=O)n2)cn1

Structure (SMILES): CN(C)CCOc1ccc(-c2nc(-c3ccncc3)c(-c3ccc4c(c3)CC/C4=N\O)[nH]2)cc1
% of control [12]: 97%

Structure (SMILES): N#Cc1cccc(-c2c[nH]c3ncnc(N4CCOCC4)c23)c1
% of inhibition [13]: 94%

IC50 [14]: 809 nM
Structure (SMILES): CN(C)C(=O)Cn1cc(-c2ccc(-c3cncc4ccccc34)cc2)cn1

Structure (SMILES): CNC(=O)Nc1ccc(-c2nc(N3CC4CCC(C3)O4)c3cnn(C4CCC5(CC4)OCCO5)c3n2)cc1
% of control [15]: 100%

Structure (SMILES): C=CC(=O)Nc1ccc(C(=O)Nc2[nH]nc3c2CN(C(=O)N[C@H](CN(C)C)c2ccccc2)C3(C)C)cc1
% of engagement [16]: -6.9%

Structure (SMILES): O=C(NOC[C@H](O)CO)c1ccc(F)c(F)c1Nc1ccc(I)cc1F
% of control [17]: 78%
